From patent US10221163B2 (priority 2015, dated 2019)

Columns and labels:
[1] = test system: Pseudomonas aeruginosa efflux− (MB9799), IMP-1; format: cell-based; conditions: concentration restoring susceptibility to imipenem at 2 μg/mL in the presence of a class A, C, D serine β-lactamase inhibitor closely related to relebactam
Description: (§1) The strain background was Pseudomonas aeruginosa PAO1.
(§2) The strain set was then used as a pair to determine the effect of metallo-β-lactamase inhibitors of Formula I on the MIC of imipenem and/or ceftazidime. A fixed concentration of antibiotic was included in standard microbroth MIC tests, usually at the CLSI (Clinical and Laboratory Standards Institute) breakpoint concentration. A fixed amount of a class A/C beta-lactamase inhibitor was also included to inhibit the resident Pseudomonas AmpC enzyme. A serial titration of the metallo-β-lactamase inhibitor was included and the concentration of metallo-β-lactamase inhibitor which restores susceptibility of the strain to the included antibiotic was recorded. That concentration of metallo-β-lactamase inhibitor was then compared between the two strains to determine the fold difference between the efflux+ (MB9798) and efflux− (MB9799) strains. This was taken as an indication of the extent to which the MBLi is subject to efflux.

[2] = test system: Serratia marcescens expressing IMP-1 (CL5741); format: cell-based; conditions: for Serratia marcescens expressing IMP-1 (CL5741) MITC95: with imipenem 1 μg/ml, 95% inhibition of bacterial growth; for Serratia marcescens MITC95: IMP-1 strain CL5741, with imipenem 1 μg/ml, 95% inhibition of growth
Protocol: (§3) Antibiotic Potentiation Activity: Determination of Synergistic Concentration
(§4) The bacterial strains tested included the clinical strains Escherichia coli expressing NDM-1 (CLB30005, CLB30016), Serratia marcescens expressing IMP-1 (CL5741), and Klebsiella pneumoniae expressing VIM-1 (IHMA599644). Inhibitor activity was measured in the presence and absence of imipenem in a 384-well microplate.
(§5) The clinical strains CLB30016, CL5741 and IHMA599644 were grown on trypticase soy agar containing 5% sheep's blood. The bacteria on agar plates were incubated at 35° C. with humidity overnight. The following day, individual colonies from each clinical strain were picked and resuspended in 5 ml saline to attain an OD600 of […], for CLB30016, CL5741 and IHMA599644, respectively. These were further diluted 1:100 into 1.1×CAMHB and used to inoculate the test wells as described below.
(§6) Imipenem in 10 mM 3-(N-morpholino)propanesulfonic acid (MOPS, pH 7) was stored in single use aliquots at −80° C. […] On the day of the assay, 4 μl of antibiotic was added to 45 ul of bacteria followed by 1 μl of test compound and mixed by pipetting and with an orbital shaker. The concentration of antibiotic used in the assay was 1 μg/ml. Microplates were covered and incubated at 35° C. for 22 hours to 24 hours. At the end of the incubation, absorbance was determined using a spectrophotometer.

[3] = test system: Klebsiella pneumoniae expressing VIM-1 (IHMA599644); format: cell-based; conditions: for Klebsiella pneumoniae expressing VIM-1 (IHMA599644) MITC95: with imipenem 1 μg/ml, 95% inhibition of bacterial growth; for Klebsiella pneumoniae MITC95: VIM-1 strain IHMA599644, with imipenem 1 μg/ml, 95% inhibition of growth
Protocol: as §3, §4, §5, §6

[4] = test system: Escherichia coli expressing NDM-1 (CLB30005, CLB30016); format: cell-based; conditions: with imipenem 1 μg/ml; for Escherichia coli expressing NDM-1 (CLB30016) MITC95: 95% inhibition of bacterial growth; for Escherichia coli MITC95: NDM-1 strain, 95% inhibition of growth
Protocol: as §3, §4, §5, §6

[5] = test system: Pseudomonas aeruginosa efflux+ (MB9798), IMP-1; format: cell-based; conditions: concentration restoring susceptibility to imipenem at 2 μg/mL in the presence of a class A, C, D serine β-lactamase inhibitor closely related to relebactam
Description: as §1, §2

IMP-1 = IMP-1 (Serratia marcescens, UniProt P52699); test: biochemical; format: biochemical; conditions: fluorescence assay, CCF2-FA substrate, 2 pM enzyme, 2 hours at 25° C.; read-out: IMP-1 IC50
Protocol: (§7) Enzyme Activity: Determination of IC50
(§8) The Class B enzyme activities were measured in the presence of the test inhibitor in a fluorescence assay against a commercially available substrate consisting of a cephalosporin core linking 7-hydroxycoumarin to fluorescein (CCF2-FA). […] In a 384-well microplate, the test inhibitor was incubated with the metallo-β-lactamase enzyme and the substrate for 2 hours at 25° C. […] The IC50 value was determined from semi-logarithmic plots of enzyme inhibition versus inhibitor concentration, with a curve generated using a 4-parameter fit.

NDM-1 = NDM-1 (Klebsiella pneumoniae, UniProt C7C422); test: biochemical; format: biochemical; conditions: fluorescence assay, CCF2-FA substrate, 1 pM enzyme, 2 hours at 25° C.; read-out: NDM-1 IC50
Protocol: as §7, §8

IMP-1, sequence (P52699 whole entry, looked up, species assumed): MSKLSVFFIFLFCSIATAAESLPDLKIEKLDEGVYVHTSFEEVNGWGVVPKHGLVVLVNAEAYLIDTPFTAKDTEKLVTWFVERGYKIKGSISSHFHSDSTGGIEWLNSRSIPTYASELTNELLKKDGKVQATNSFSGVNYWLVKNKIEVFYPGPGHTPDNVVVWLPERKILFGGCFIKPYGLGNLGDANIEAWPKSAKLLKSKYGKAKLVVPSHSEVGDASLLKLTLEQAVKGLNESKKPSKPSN
NDM-1, sequence (C7C422 whole entry, looked up, species assumed): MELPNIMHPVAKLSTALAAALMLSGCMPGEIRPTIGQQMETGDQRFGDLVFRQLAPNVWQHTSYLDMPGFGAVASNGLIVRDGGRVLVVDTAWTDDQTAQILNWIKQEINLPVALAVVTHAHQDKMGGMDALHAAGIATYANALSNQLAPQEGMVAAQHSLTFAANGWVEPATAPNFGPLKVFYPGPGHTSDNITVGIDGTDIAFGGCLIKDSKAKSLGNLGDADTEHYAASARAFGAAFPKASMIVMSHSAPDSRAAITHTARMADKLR

| SMILES | P. aeruginosa expressing IMP-1, efflux − (MB9799) MITC95 [1] [µM] | Serratia marcescens expressing IMP-1 (CL5741) MITC95 [2] [µM] | Klebsiella pneumoniae expressing VIM-1 (IHMA599644) MITC95 [3] [µM] | Escherichia coli expressing NDM-1 (CLB30016) MITC95 [4] [µM] | P. aeruginosa expressing IMP-1, efflux + (MB9798) MITC95 [5] [µM] | IC50 (IMP-1) [nM] | IC50 (NDM-1) [nM] | Serratia marcescens MITC95 [2] [µM] | Klebsiella pneumoniae MITC95 [3] [µM] | Escherichia coli MITC95 [4] [µM] |
| --- | --- | --- | --- | --- | --- | --- | --- | --- | --- | --- |
| Nc1nc2c(-c3ccc(S(=O)(=O)NCCN4CCC4)c(S(N)(=O)=O)c3-c3nnn[nH]3)cccc2s1 [Example 21, 4-(2-amino-1,3-benzothiazol-4-yl)-N1-(2-azetidin-1-ylethyl)-3-(1H-tetrazol-5-yl)benzene-1,2-disulfonamide] | 1.563 | 3.125 | 6.25 | 6.25 | 1.563 | 0.383 | 0.0642 | – | – | – |
| CS(=O)(=O)C1CCN(S(=O)(=O)c2ccc(-c3cccc4sc(N)nc34)c(-c3nnn[nH]3)c2S(N)(=O)=O)C1 (stereo not drawn) [Example 45, 3-(2-amino-1,3-benzothiazol-4-yl)-6-{[3-(methylsulfonyl)pyrrolidin-1-yl]sulfonyl}-2-(1H-tetrazol-5-yl)benzenesulfonamide] | 3.125 | 6.25 | 25 | 50 | 25 | 1.65 | – | – | – | – |
| Nc1nc2c(-c3ccc(S(=O)(=O)N[C@H]4C[C@H](N)C4)c(S(N)(=O)=O)c3-c3nnn[nH]3)cccc2s1 [Example 71, 4-(2-amino-1,3-benzothiazol-4-yl)-N^1-(trans-3-aminocyclobutyl)-3-(1H-tetrazol-5-yl)benzene-1,2-disulfonamide] | 1.563 | 3.125 | 3.125 | 1.563 | 1.563 | – | 0.0612 | – | – | – |
| Nc1nc2c(-c3ccc(S(=O)(=O)NCC4(N)CCOC4)c(S(N)(=O)=O)c3-c3nnn[nH]3)cccc2s1.O=CO (stereo not drawn) [Example 114, 3-((4-(2-aminobenzo[d]thiazol-4-yl)-2-sulfamoyl-3-(1H-tetrazol-5-yl)phenylsulfonamido)methyl)tetrahydrofuran-3-aminium formate] | 3.125 | 3.125 | 6.25 | 3.125 | 3.125 | – | 0.0649 | – | – | – |
| Nc1ccc(-c2ccc(S(=O)(=O)NCCc3c[nH]cn3)c(S(N)(=O)=O)c2-c2nn[nH]n2)cn1 [Example 217, N^1-(2-(1H-imidazol-4-yl)ethyl)-4-(6-aminopyridin-3-yl)-3-(2H-tetrazol-5-yl)benzene-1,2-disulfonamide] | 1.563 | 1.563 | 3.125 | 0.3906 | 12.5 | – | 0.447 | – | – | – |
| C[N+]1(C)CC(NS(=O)(=O)c2ccc(-c3cccc4[nH]c(N)nc34)c(-c3nn[nH]n3)c2S(N)(=O)=O)C1.O=C([O-])O [Example 245, 3-(4-(2-Amino-1H-benzo[d]imidazol-4-yl)-2-sulfamoyl-3-(2H-tetrazol-5-yl)phenylsulfonamido)-1,1-dimethylazetidin-1-ium hydrogencarbonate] | 1.563 | – | – | – | 1.563 | – | – | 1.563 | 3.125 | 0.7813 |
| Nc1ncc(-c2ccc(S(=O)(=O)N[C@@H]3CCNC3)c(S(N)(=O)=O)c2-c2nn[nH]n2)s1 [Example 284] | 0.7813 | – | – | – | 0.7813 | 0.411 | – | 0.7813 | 1.563 | 1.563 |
